Consider 19 compounds from patent publication US7524847B2, “Fused 1,3-dihydro-imidazole ring compounds” (Eisai R&D Management Co., Ltd., priority 2002, dated 2009).

The target in experiment [1] is T1, DPP-IV obtained from pig kidney (Sus scrofa, UniProt P22411).
T1 construct: DPP-IV obtained from pig kidney; from tissue; host or cells: pig kidney
Description: Measurement of DPPIV-inhibiting activity (in vitro experiment). Type of experiment: biochemical. Conditions: DPP-IV from pig kidney 10 mU/mL, substrate Gly-Pro-p-nitroanilide 0.33 mM, 20 min preincubation, 20 min reaction, absorbance 405 nm. The protocol:
DPP-IV obtained from pig kidney was dissolved in a reaction buffer (50 mM Tris-HCl pH7.4, 0.1% BSA) at 10 mU/mL, and 110 μL of this was used. 15 μL of the drug obtained from the aforementioned Examples was added, and this was incubated at room temperature for 20 minutes, and then 25 μL of a 2 mM solution of Gly-Pro-p-nitroanilide (final concentration 0.33 mM) was added to start the enzymatic reaction. The reaction time was 20 minutes, and 1 N phosphoric acid solution (25 μL) was added to stop the reaction.

Experiment [2] concerns normal mice (male C57BL/6N). As to the kind of experiment: Effects on glucose tolerance in normal mice (in vivo experiment). Conditions: 1 mg/kg oral, 30 min before oral glucose 2 g/kg; blood glucose AUC0-120; 0.5% MC group = 100%, NVP DPP728 (10 mg/kg) group = 0%; lower = better. The protocol: Animals: Male C57BL/6N mice (purchased from Japan Charles River) The test compounds were suspended in a 0.5% methylcellulose (MC) solution at the doses indicated below in Table 2. These test compounds and the NVP DPP728 (U.S. Pat. No. 6,011,155) suspension, or the 0.5% MC solution (the solvent control group), were administered orally at a dose of 10 mL/kg. 30 minutes later, a glucose solution was orally administered at a dose of 10 mL/kg. Glucose was orally administered at a dose of 2 g/kg. The tail vain of unanesthetized mice was cut with a razor blade to cause a small amount of bleeding immediately before administering the test substances or NVP DPP728, and immediately before, as well as 30, 60, and 120 minutes after, administration of the glucose solution. 10 μL of blood was collected, and this was mixed immediately with 0.6 M perchloric acid (140 μL). Glucose present in the supernatant obtained by centrifugation (1500 g, 10 minutes, 4° C., refrigerated centrifuge GS-6KR, Beckman) was measured using Glucose CII Test Wako (Wako Pure Chemicals). Results: In each of the groups to which 0.5% MC solution, NVP DPP728, and the test compounds were administered, the area under the curve of blood glucose vs. time was calculated over 0 to 120 minutes from the time of glucose administration (AUC0-120). Defining the AUC0-120 for the 0.5% MC solution-administered group as 100%, and the AUC0-120 for the NVP DPP728 (10 mg/kg)-administered group as 0%, the degree of improvement in glucose tolerance due to the test compound was calculated by the following equation: Degree of improvement in glucose tolerance (%)=(AUC0-120 of the test compound−AUC0-120 of the NVP DPP728 (10 mg/kg)-administered group)/(AUC0-120 of the 0.5% MC solution-administered group−AUC0-120 of the NVP DPP728 (10 mg/kg)-administered group)×100 The lower the % value, the better the degree of improvement in glucose tolerance.

The IC50 is the concentration at which inhibition is half-maximal.

Structures can show the parent of a compound that is named as a salt.

T1 sequence (P22411 whole entry): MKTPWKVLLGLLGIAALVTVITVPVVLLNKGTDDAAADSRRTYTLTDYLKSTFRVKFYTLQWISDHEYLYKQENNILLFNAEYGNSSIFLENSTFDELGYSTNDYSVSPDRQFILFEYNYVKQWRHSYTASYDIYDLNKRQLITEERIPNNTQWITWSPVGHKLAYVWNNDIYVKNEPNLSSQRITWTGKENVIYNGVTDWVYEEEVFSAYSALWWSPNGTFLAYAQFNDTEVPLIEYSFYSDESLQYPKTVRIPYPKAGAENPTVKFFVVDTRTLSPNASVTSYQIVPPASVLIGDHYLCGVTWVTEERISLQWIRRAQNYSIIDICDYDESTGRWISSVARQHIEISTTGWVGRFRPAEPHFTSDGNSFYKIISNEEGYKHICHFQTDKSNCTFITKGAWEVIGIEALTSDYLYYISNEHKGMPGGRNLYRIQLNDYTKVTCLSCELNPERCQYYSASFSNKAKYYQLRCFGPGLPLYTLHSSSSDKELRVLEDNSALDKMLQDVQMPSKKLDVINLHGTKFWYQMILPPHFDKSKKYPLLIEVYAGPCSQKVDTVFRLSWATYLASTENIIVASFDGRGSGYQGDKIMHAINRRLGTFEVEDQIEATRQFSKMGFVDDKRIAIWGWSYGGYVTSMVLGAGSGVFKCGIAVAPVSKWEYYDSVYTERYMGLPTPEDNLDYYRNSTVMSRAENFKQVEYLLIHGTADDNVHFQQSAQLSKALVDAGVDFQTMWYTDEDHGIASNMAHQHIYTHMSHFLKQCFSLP

The compound `C=CCn1c(=O)n(CC#CC)c2c(N3CCNCC3)nc(OC)nc21.O=C(O)C(F)(F)F` [Example 47, 9-Allyl-7-(2-butynyl)-2-methoxy-6-(piperazin-1-yl)-7,9-dihydropurin-8-one trifluoroacetic acid salt] showed an IC50 in experiment [1] of 167 nM. Further, in experiment [2], the “Degree of improvement in glucose tolerance (%)” value (“Degree of improvement … (%)” for short) was found to be 11.6%.

Compound `CC#CCn1c(=O)n(-c2ccoc2)c2nc(OC)nc(N3CCNCC3)c21.O=C(O)C(F)(F)F` [Example 56, 7-(2-Butynyl)-9-(furan-3-yl)-2-methoxy-6-(piperazin-1-yl)-7,9-dihydropurin-8-one trifluoroacetic acid salt] displayed an IC50 in experiment [1] of 96.4 nM. In addition, in experiment [2], the “Degree of improvement … (%)” value is on record as 11.3%.

With `CC#CCn1c(=O)n(-c2cccnc2)c2nc(Cl)nc(N3CCNCC3)c21.O=C(O)C(F)(F)F` [Example 46, 7-(2-Butynyl)-2-chloro-6-(piperazin-1-yl)-9-(pyridin-3-yl)-7,9-dihydropurin-8-one trifluoroacetic acid salt], the midpoint of inhibition in experiment [1], the IC50, lay at 42.6 nM. In addition, in experiment [2], the “Degree of improvement … (%)” value stood at 37%.

In the case of `CC#CCn1c(=O)n(C)c2nc(OC)nc(N3CCNCC3)c21.O=C(O)C(F)(F)F` [Example 1, 7-(2-Butynyl)-2-methoxy-9-methyl-6-(piperazin-1-yl)-7,9-dihydropurin-8-one trifluoroacetic acid salt], in experiment [1], the IC50 came to 240 nM. In experiment [2], the “Degree of improvement … (%)” value was 19.8%.

In turn, `CC#CCn1c(=O)n(C)c2nc(OC(C)C)nc(N3CCNCC3)c21.O=C(O)C(F)(F)F` [Example 7, 7-(2-Butynyl)-2-isopropoxy-9-methyl-6-(piperazin-1-yl)-7,9-dihydropurin-8-one trifluoroacetic acid salt] registered an IC50 in experiment [1] of 199 nM. The “Degree of improvement … (%)” value in experiment [2] was found to be 19.8%.

Compound `CC#CCn1c(=O)n(-c2cccnc2)c2ncnc(N3CCNCC3)c21.O=C(O)C(F)(F)F` [Example 61, 7-(2-Butynyl)-6-(piperazin-1-yl)-9-(pyridin-3-yl)-7,9-dihydropurin-8-one trifluoroacetic acid salt] registered an IC50 in experiment [1] of 61.9 nM. The “Degree of improvement … (%)” value in experiment [2] was found to be 9.4%.

`CC#CCn1c(=O)n(C)c2nc(OCC)nc(N3CCNCC3)c21.O=C(O)C(F)(F)F` [Example 10, 7-(2-Butynyl)-2-ethoxy-9-methyl-6-(piperazin-1-yl)-7,9-dihydropurin-8-one trifluoroacetic acid salt] yielded an IC50 in experiment [1] of 251 nM. Also, the “Degree of improvement … (%)” value in experiment [2] turned out to be 17.3%.

With `CC#CCn1c(=O)n(C)c2nc(Oc3ccccc3C#N)nc(N3CCNCC3)c21.O=C(O)C(F)(F)F` [Example 13, 2-[7-(2-Butynyl)-9-methyl-8-oxo-6-(piperazin-1-yl)-8,9-dihydro-7H-purin-2-yloxy]benzonitrile trifluoroacetic acid salt], in experiment [1], the IC50 stood at 24.7 nM. Further, the “Degree of improvement … (%)” value in experiment [2] is 33.5%.

Take `CC#CCn1c(=O)n(-c2cnc(OC)nc2)c2ncnc(N3CCNCC3)c21.O=C(O)C(F)(F)F` [Example 64, 7-(2-Butynyl)-9-(2-methoxy-pyrimidin-5-yl)-6-(piperazin-1-yl)-7,9-dihydropurin-8-one trifluoroacetic acid salt]: the IC50 in experiment [1] is 32.5 nM. Further, the “Degree of improvement … (%)” value in experiment [2] is −11.4%.

For the compound `CC#CCn1c(=O)n(-c2ccnc(Cl)c2)c2ncnc(N3CCNCC3)c21.O=C(O)C(F)(F)F` [Example 65, 7-(2-Butynyl)-9-(2-chloro-pyridin-4-yl)-6-(piperazin-1-yl)-7,9-dihydropurin-8-one trifluoroacetic acid salt], the half-maximal inhibitory concentration (IC50) in experiment [1] was found to be 16.7 nM. In addition, in experiment [2], the “Degree of improvement … (%)” value is 9.5%.

Compound `CC#CCn1c(=O)n(CC2CC2)c2nc(OC)nc(N3CCNCC3)c21.O=C(O)C(F)(F)F` [Example 51, 7-(2-Butynyl)-9-cyclopropylmethyl-2-methoxy-6-(piperazin-1-yl)-7,9-dihydropurin-8-one trifluoroacetic acid salt] had an IC50 in experiment [1] of 130 nM. For the same compound, in experiment [2], the “Degree of improvement … (%)” value was determined as 59.3%.

Take `C=CCOc1nc(N2CCNCC2)c2c(n1)n(C)c(=O)n2CC#CC.O=C(O)C(F)(F)F` [Example 15, 2-Allyloxy-7-(2-butynyl)-9-methyl-6-(piperazin-1-yl)-7,9-dihydropurin-8-one trifluoroacetic acid salt]: in experiment [1], half-maximal inhibition (IC50) was put at 319 nM. For the same compound, the “Degree of improvement … (%)” value in experiment [2] was determined as 46%.

Compound `CC#CCn1c(=O)n(CC#CC)c2c(N3CCNCC3)nc(OC)nc21.O=C(O)C(F)(F)F` [Example 48, 7,9-Di-(2-butynyl)-2-methoxy-6-(piperazin-1-yl)-7,9-dihydropurin-8-one trifluoroacetic acid salt] showed an IC50 in experiment [1] of 71.6 nM. The “Degree of improvement … (%)” value in experiment [2] was 37.4%.

Compound `CC#CCn1c(=O)n(CCC)c2nc(OC)nc(N3CCNCC3)c21.O=C(O)C(F)(F)F` [Example 52, 7-(2-Butynyl)-2-methoxy-6-(piperazin-1-yl)-9-propyl-7,9-dihydropurin-8-one trifluoroacetic acid salt] registered an IC50 in experiment [1] of 175 nM. The “Degree of improvement … (%)” value in experiment [2] was 29.7%.

`C=CCn1c(=O)n(CC#CC)c2c(N3CCNCC3)ncnc21.O=C(O)C(F)(F)F` [Example 69, 9-Allyl-7-(2-butynyl)-6-(piperazin-1-yl)-7,9-dihydropurin-8-one trifluoroacetic acid salt]: in experiment [1], the IC50 came out at 224 nM. Moreover, the “Degree of improvement … (%)” value in experiment [2] is 44.1%.

`CC#CCn1c(=O)n(-c2ccccc2)c2nc(OC)nc(N3CCNCC3)c21.O=C(O)C(F)(F)F` [Example 54, 7-(2-Butynyl)-2-methoxy-9-phenyl-6-(piperazin-1-yl)-7,9-dihydropurin-8-one trifluoroacetic acid salt] had an IC50 in experiment [1] of 88.8 nM. Further, the “Degree of improvement … (%)” value in experiment [2] amounted to 24.4%.

In experiment [1], `CC#CCn1c(=O)n(CC(=O)O)c2nc(Cl)nc(N3CCNCC3)c21` [Example 31, [7-(2-Butynyl)-2-chloro-8-oxo-6-(piperazin-1-yl)-7,8-dihydropurin-9-yl]acetic acid trifluoroacetic acid salt] registered an IC50 of 259 nM.

In turn, `CC#CCn1c(=O)n(CC2CC2)c2ncnc(N3CCNCC3)c21` [Example 72, 7-(2-Butynyl)-9-cyclopropylmethyl-6-(piperazin-1-yl)-7,9-dihydropurin-8-one trifluoroacetic acid salt] had an IC50 in experiment [1] of 141 nM.

The compound `CC#CCn1c(=O)n(C)c2nc(Cl)nc(N3CCCC(NC)C3)c21` (centres unmarked) [Example 28, 7-(2-Butynyl)-2-chloro-9-methyl-6-(3-methylamino-piperidin-1-yl)-7,9-dihydropurin-8-one trifluoroacetic acid salt] came in with an IC50 in experiment [1] of 89500 nM.
